Columns and labels:
hr Ad1 = target: T1, hr Ad1 (Homo sapiens, UniProt P30542); assay: receptor profile (Table S4); assay type: binding
T1 sequence (P30542 1-326): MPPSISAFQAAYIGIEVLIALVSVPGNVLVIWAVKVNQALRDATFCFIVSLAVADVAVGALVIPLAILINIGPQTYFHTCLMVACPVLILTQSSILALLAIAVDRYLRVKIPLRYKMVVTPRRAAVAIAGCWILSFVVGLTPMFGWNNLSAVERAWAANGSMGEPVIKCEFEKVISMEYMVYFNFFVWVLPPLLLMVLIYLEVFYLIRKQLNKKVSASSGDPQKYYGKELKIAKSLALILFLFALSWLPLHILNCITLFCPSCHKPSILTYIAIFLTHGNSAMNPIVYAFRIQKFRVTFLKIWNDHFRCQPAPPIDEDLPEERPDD

hr MAOA = target: T2, hr MAOA (Homo sapiens, UniProt P21397); assay: receptor profile (Table S4); assay type: biochemical
T2 sequence (P21397 1-527): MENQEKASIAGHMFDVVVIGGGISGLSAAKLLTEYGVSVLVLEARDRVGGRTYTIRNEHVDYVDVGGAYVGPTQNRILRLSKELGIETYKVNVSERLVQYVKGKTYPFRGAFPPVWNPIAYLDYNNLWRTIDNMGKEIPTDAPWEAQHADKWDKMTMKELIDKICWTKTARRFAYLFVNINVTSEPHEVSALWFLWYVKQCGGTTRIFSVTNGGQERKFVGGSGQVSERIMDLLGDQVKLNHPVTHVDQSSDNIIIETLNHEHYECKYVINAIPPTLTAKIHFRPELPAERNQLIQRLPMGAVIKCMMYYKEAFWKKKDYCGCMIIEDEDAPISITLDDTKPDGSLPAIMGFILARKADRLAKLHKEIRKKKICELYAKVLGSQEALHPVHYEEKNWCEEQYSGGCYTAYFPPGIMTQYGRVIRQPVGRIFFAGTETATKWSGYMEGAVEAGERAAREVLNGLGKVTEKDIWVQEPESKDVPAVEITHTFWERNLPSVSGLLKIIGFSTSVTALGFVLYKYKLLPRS

[1] = dissolution study and supersaturation stability in FASSIF; assay type: physicochemical
hr 5-HT1A antag = target: T3, hr 5-HT1A antag (Homo sapiens, UniProt P08908); assay: receptor profile (Table S4); assay type: biochemical
T3 sequence (P08908 1-422): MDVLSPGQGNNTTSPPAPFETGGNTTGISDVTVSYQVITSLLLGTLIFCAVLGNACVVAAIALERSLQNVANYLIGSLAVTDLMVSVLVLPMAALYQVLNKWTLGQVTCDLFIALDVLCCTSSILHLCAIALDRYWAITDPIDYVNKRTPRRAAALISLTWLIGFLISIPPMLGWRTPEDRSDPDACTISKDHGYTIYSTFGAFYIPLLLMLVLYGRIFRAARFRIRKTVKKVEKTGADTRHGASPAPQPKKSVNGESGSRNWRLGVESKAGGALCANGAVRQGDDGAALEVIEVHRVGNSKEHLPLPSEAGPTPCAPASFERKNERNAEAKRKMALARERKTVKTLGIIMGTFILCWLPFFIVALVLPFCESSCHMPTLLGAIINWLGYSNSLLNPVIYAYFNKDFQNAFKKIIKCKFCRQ

in vivo = conditions: Balb/c, mouse, plasma
Description: In Vivo PK Studies in Mice.
The solution was filtered using a 0.45 m syringe filter before dosing. Two male Balb/c mice were administered 1 intravenously via the lateral tail
vein at 5 mg/kg with a dose volume of 2.0 mL/kg. 1 was also formulated in a suspension of 0.5%
methylcellulose with 0.5% Tween 80 (0.5% MC/0.5% Tw80) in water at 2.5 mg/mL. A group of mice
(n=3) were administered 1 orally via gavage at 20 mg/kg with a dose volume of 8.0 mL/kg.
The mouse blood samples were centrifuged to separate plasma and the plasma samples were frozen at -
In Vivo PK Studies in Rats.
Two male Wistar rats were administered
1 intravenously via the lateral tail vein at 3 mg/kg with a dose volume of 1.0 mL/kg. 1 was also formulated
in a suspension of 0.5% methylcellulose with 0.5% Tween 80 (0.5% MC/0.5% Tw80) in water at 2.0
mg/mL. The second group of rats (n=3) were administered 1 orally via gavage at 10 mg/kg in suspension
with a dose volume of 5.0 mL/kg. Six blood samples of 100 μL each were collected serially from each
animal via the saphenous vein up to 24 hours after dosing. The rat blood samples were centrifuged to
separate plasma and the plasma samples were frozen at -20°C until analysis.
In Vivo PK Studies in Dogs.
The solution was filtered using a 0.45 m syringe filter before dosing. Three male Beagle dogs were administered 1 intravenously via saphenous
vein at 0.3 mg/kg with a dose volume of 0.1 mL/kg. 1 was also formulated in a suspension of 0.5%
methylcellulose with 0.5% Tween 80 (0.5%MC/0.5% Tween 80) in water at 1.0 mg/mL. The second
group of male dogs (n=2) were administered 1- orally via gavage at 1.0 mg/kg with a dose volume of 1.0
mL/kg. Seven blood samples of 250 µL each were collected serially from each animal via the jugular vein
The dog blood samples were centrifuged to separate plasma and the plasma
samples were frozen at -20 °C until analysis.

hr 5-HTT = hr 5-HTT (Homo sapiens, UniProt P31645); assay: receptor profile (Table S4); assay type: binding
hr 5-HTT, sequence (P31645 whole entry): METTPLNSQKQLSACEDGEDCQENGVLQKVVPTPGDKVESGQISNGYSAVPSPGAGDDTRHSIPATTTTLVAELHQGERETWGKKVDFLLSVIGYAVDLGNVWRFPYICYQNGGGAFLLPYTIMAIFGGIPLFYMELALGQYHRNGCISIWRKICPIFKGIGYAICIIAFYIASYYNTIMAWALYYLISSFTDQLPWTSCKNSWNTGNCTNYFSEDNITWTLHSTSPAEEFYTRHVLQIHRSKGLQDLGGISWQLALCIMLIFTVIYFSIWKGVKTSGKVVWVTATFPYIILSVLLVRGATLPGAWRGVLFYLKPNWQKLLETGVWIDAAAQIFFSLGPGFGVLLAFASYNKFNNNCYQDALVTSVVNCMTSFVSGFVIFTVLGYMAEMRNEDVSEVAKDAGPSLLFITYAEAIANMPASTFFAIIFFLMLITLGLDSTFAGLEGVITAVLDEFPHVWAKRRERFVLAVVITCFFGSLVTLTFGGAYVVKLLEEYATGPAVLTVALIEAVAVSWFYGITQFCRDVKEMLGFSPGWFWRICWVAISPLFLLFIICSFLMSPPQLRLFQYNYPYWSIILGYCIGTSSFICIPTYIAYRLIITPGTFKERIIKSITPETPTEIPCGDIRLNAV

hr D1 ag = hr D1 ag (Homo sapiens, UniProt P21728); assay: receptor profile (Table S4); assay type: biochemical
hr D1 ag, sequence (P21728 whole entry): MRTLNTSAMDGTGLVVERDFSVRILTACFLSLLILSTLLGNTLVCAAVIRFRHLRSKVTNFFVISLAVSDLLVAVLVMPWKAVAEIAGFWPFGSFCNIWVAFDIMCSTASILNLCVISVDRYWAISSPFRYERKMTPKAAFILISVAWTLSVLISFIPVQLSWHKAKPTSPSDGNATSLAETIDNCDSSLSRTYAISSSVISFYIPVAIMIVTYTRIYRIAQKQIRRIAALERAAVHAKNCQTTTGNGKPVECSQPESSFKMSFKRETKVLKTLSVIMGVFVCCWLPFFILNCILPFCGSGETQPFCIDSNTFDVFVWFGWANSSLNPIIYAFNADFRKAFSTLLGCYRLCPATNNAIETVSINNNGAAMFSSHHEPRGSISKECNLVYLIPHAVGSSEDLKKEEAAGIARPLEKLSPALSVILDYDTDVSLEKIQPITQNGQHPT

hr Beta1 = hr Beta1 (Homo sapiens, UniProt P08588); assay: receptor profile (Table S4); assay type: binding
hr Beta1, sequence (P08588 whole entry): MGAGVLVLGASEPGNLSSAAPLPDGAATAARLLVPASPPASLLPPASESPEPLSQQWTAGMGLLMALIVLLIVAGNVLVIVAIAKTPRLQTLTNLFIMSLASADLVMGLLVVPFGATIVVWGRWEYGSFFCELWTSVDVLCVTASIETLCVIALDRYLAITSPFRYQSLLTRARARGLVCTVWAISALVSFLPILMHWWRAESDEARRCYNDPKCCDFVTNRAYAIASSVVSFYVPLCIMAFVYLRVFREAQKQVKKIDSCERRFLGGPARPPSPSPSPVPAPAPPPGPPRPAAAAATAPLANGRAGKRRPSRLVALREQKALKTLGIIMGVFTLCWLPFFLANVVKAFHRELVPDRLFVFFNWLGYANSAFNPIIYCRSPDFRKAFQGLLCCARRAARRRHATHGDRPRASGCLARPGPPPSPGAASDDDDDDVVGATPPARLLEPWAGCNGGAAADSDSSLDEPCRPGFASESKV

hr CCKa = target: T4, hr CCKa (Homo sapiens, UniProt P32238); assay: receptor profile (Table S4); assay type: binding
T4 sequence (P32238 1-428): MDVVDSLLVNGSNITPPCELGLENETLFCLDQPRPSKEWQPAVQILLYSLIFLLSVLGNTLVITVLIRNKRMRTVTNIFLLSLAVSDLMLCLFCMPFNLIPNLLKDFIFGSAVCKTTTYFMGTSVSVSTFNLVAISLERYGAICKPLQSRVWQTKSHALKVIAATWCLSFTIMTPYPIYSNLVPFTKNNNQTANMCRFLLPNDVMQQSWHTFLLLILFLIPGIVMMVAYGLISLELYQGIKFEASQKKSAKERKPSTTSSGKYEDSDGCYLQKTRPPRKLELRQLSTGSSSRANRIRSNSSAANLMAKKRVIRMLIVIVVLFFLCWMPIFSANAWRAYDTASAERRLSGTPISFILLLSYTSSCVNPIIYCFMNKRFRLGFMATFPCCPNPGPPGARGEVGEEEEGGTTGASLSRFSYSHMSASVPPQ

[2] = mouse plasma protein binding; assay type: in vitro ADME
hr CB1 ag = hr CB1 ag (Homo sapiens, UniProt P21554); assay: receptor profile (Table S4); assay type: biochemical
hr CB1 ag, sequence (P21554 whole entry): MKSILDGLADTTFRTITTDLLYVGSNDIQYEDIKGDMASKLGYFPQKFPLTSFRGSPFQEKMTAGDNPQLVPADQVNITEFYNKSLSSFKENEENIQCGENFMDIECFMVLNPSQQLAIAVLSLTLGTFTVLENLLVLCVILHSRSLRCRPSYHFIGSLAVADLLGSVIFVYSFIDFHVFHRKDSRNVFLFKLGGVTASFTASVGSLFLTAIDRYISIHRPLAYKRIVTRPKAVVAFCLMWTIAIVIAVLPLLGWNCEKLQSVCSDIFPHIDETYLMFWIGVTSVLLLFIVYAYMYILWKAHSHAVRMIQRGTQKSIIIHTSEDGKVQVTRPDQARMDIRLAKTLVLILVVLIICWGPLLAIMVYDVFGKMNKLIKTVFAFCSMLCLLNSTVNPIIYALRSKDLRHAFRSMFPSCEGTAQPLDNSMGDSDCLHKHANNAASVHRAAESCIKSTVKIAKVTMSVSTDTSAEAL

With Cc1nc(C)c(C(=O)Nc2ccc(F)c(-c3nc4ncc(-c5ncccc5C)cn4n3)c2)o1 [compound 1, N-(4-Fluoro-3-(6-(3-methylpyridin-2-yl)-[1,2,4]triazolo[1,5-a]pyrimidin-2-yl)phenyl)-2,4-dimethyloxazole-5-carboxamide] the EC50/IC50 (hr Ad1; hr Ad1) was greater than 30 µM, the inhibition at 10 µM (hr Ad1; read-out: % inh/act @ 10 µM) was 10% and the inhibition at 30 µM (hr Ad1; read-out: % inh/act @ 30 µM) was 27%. It also gave an EC50/IC50 (hr MAOA; hr MAOA) greater than 30 µM, an inhibition at 10 µM (hr MAOA; read-out: % inh/act @ 10 µM) of 4% and an inhibition at 30 µM (hr MAOA; read-out: % inh/act @ 30 µM) of 12%. The “concentration in FASSIF (supersaturation)” value ([1]; fumarate cocrystal of 1, FASSIF, at 16 min) was 73 µM, the dissolution rate ([1]; fumarate cocrystal of 1 vs free base of 2, Figure 1) was “significantly higher dissolution rate” and the EC50/IC50 (hr 5-HT1A antag; hr 5-HT1A antag) was greater than 30 µM. For the same compound, the inhibition at 10 µM (hr 5-HT1A antag; read-out: % inh/act @ 10 µM) was 19%, the inhibition at 30 µM (hr 5-HT1A antag; read-out: % inh/act @ 30 µM) was 42% and the bioavailability (in vivo; po, 20 mg/kg) was 46%. The MRT (in vivo; male, iv, 5 mg/kg) was 4.6 h, the Vd (in vivo; male, iv, 5 mg/kg) was 0.63 L/kg and the clearance (in vivo; male, iv, 5 mg/kg) was 0.138 L/h/kg. It also gave a half-life (in vivo; male, iv, 5 mg/kg) of 3.3 h, an EC50/IC50 (hr 5-HTT; hr 5-HTT) greater than 30 µM and an inhibition at 10 µM (hr 5-HTT; read-out: % inh/act @ 10 µM) of 17%. It also gave an inhibition at 30 µM (hr 5-HTT; read-out: % inh/act @ 30 µM) of 12%, an EC50/IC50 (hr D1 ag; hr D1 ag) greater than 30 µM and an inhibition at 10 µM (hr D1 ag; read-out: % inh/act @ 10 µM) of 6%. The inhibition at 30 µM (hr D1 ag; read-out: % inh/act @ 30 µM) was 2%, the “% inh/act @ 10 µM” value (r BZD) was 7% and the “% inh/act @ 30 µM” value (r BZD) was 7%. It also gave an EC50/IC50 (hr Beta1; hr Beta1) greater than 30 µM, an inhibition at 10 µM (hr Beta1; read-out: % inh/act @ 10 µM) of 6% and an inhibition at 30 µM (hr Beta1; read-out: % inh/act @ 30 µM) of 10%. The EC50/IC50 (hr CCKa; hr CCKa) was greater than 30 µM, the inhibition at 10 µM (hr CCKa; read-out: % inh/act @ 10 µM) was 12% and the inhibition at 30 µM (hr CCKa; read-out: % inh/act @ 30 µM) was 50%. For the same compound, the fraction unbound [2] was 0.056, the EC50/IC50 (hr CB1 ag; hr CB1 ag) was greater than 30 µM and the inhibition at 10 µM (hr CB1 ag; read-out: % inh/act @ 10 µM) was 0%. The inhibition at 30 µM (hr CB1 ag; read-out: % inh/act @ 30 µM) was 3%.

Reference: article PMC7549094 (Journal of Medicinal Chemistry, 2020)
